# PubChem BioAssay (NCI)
#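 Five compound concentrations were applied to cells in 96-well plates for 48 hours; endpoints were derived by simple linear interpolation of the resulting dose-response curve. Here, GI50 denotes the concentration required for 50% inhibition of growth. The concentration for full growth arrest is given as TGI.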
# Legend:
# Assay in all cases: NCI anticancer screen, dose series, 48 h
# [1] = tested on: SK-OV-3 ovarian
# [2] = tested on: RXF 393 renal
# [3] = tested on: HS 578T breast
# [4] = tested on: KM12 colon
# [5] = tested on: U251 CNS
# [6] = tested on: CAKI-1 renal
# [7] = tested on: NCI-H23 lung
# [8] = tested on: A549 NSCLC
# [9] = tested on: HCC-2998 colon
# [10] = tested on: UACC-257 melanoma
# [11] = tested on: SN12C renal
# [12] = tested on: LOX IMVI melanoma
# [13] = tested on: MDA-MB-435
# [14] = tested on: 786-0 renal
# [15] = tested on: MDA-N
# [16] = tested on: MALME-3M melanoma
# [17] = tested on: NCI-H460 lung
# [18] = tested on: COLO 205 colon
# [19] = tested on: ACHN renal
# [20] = tested on: IGROV1 ovarian
# [21] = tested on: SF-295 CNS
# [22] = tested on: PC-3 prostate
# [23] = tested on: OVCAR-3 ovarian
# [24] = tested on: OVCAR-4 ovarian
# [25] = tested on: SK-MEL-28 melanoma
# [26] = tested on: NCI/ADR-RES ovarian
# [27] = tested on: HOP-62 NSCLC
# [28] = tested on: T-47D breast
# [29] = tested on: NCI-H522 lung
# [30] = tested on: RPMI-8226 leukemia
# [31] = tested on: SW-620 colon
# [32] = tested on: SF-539 CNS
# [33] = tested on: TK-10 renal
# [34] = tested on: UACC-62 melanoma
# [35] = tested on: HT29 colon
# [36] = tested on: K-562 leukemia
# [37] = tested on: A498 renal
# [38] = tested on: OVCAR-8 ovarian
# [39] = tested on: M14 melanoma
# [40] = tested on: EKVX NSCLC
# [41] = tested on: DU-145 prostate
# [42] = tested on: SF-268 CNS
# [43] = tested on: HL-60(TB) leukemia
# [44] = tested on: NCI-H226 lung
# [45] = tested on: MCF7 breast
# [46] = tested on: SNB-75 CNS
# [47] = tested on: OVCAR-5 ovarian
# [48] = tested on: HCT-15 colon
# [49] = tested on: SNB-19 CNS
# [50] = tested on: HCT-116 colon
# [51] = tested on: SK-MEL-5 melanoma
# [52] = tested on: SR leukemia
# [53] = tested on: CCRF-CEM leukemia
# [54] = tested on: MDA-MB-231 breast
# [55] = tested on: SK-MEL-2 melanoma
# [56] = tested on: MOLT-4 leukemia
smiles,measurement,setting,value
Cc1cc(N=Cc2c(CO)cnc(C)c2O)c(N=Cc2c(CO)cnc(C)c2O)cc1C,TGI,[1],> 100 µM
same,TGI,[2],> 100 µM
same,TGI,[3],> 100 µM
same,TGI,[4],> 100 µM
same,TGI,[5],> 100 µM
same,TGI,[6],> 100 µM
same,TGI,[7],> 100 µM
same,TGI,[8],> 100 µM
same,TGI,[9],> 100 µM
same,TGI,[10],> 100 µM
same,TGI,[11],> 100 µM
same,TGI,[12],> 100 µM
same,TGI,[13],> 100 µM
same,TGI,[14],> 100 µM
same,TGI,[15],> 100 µM
same,TGI,[16],> 100 µM
same,TGI,[17],> 100 µM
same,TGI,[18],> 100 µM
same,TGI,[19],> 100 µM
same,TGI,[20],> 100 µM
same,TGI,[21],> 100 µM
same,TGI,[22],> 100 µM
same,TGI,[23],> 100 µM
same,TGI,[24],> 100 µM
same,TGI,[25],> 100 µM
same,TGI,[26],> 100 µM
same,TGI,[27],> 100 µM
same,TGI,[28],> 100 µM
same,TGI,[29],> 100 µM
same,GI50,[30],26.1 µM
same,TGI,[30],> 100 µM
same,TGI,[31],> 100 µM
same,TGI,[32],> 100 µM
same,TGI,[33],> 100 µM
same,TGI,[34],> 100 µM
same,TGI,[35],> 100 µM
same,TGI,[36],> 100 µM
same,TGI,[37],> 100 µM
same,TGI,[38],> 100 µM
same,TGI,[39],> 100 µM
same,TGI,[40],> 100 µM
same,TGI,[41],> 100 µM
same,TGI,[42],> 100 µM
same,GI50,[43],0.0212 µM
same,TGI,[43],> 100 µM
same,TGI,[44],> 100 µM
same,TGI,[45],> 100 µM
same,TGI,[46],> 100 µM
same,TGI,[47],> 100 µM
same,TGI,[48],> 100 µM
same,TGI,[49],> 100 µM
same,TGI,[50],> 100 µM
same,TGI,[51],> 100 µM
same,GI50,[52],41.2 µM
same,TGI,[52],> 100 µM
same,TGI,[53],80 µM
same,TGI,[54],> 100 µM
O=C(Nc1ccc(F)cc1)c1cc2c(cc1Cl)Sc1nccn1S2(=O)=O,TGI,[1],> 100 µM
same,TGI,[2],> 100 µM
same,TGI,[3],> 100 µM
same,TGI,[4],> 100 µM
same,TGI,[5],45.2 µM
same,TGI,[6],> 100 µM
same,TGI,[8],> 100 µM
same,TGI,[9],> 100 µM
same,TGI,[11],> 100 µM
same,TGI,[12],> 100 µM
same,TGI,[13],> 100 µM
same,TGI,[14],> 100 µM
same,TGI,[55],> 100 µM
same,TGI,[15],> 100 µM
same,TGI,[16],> 100 µM
same,TGI,[17],> 100 µM
same,TGI,[18],> 100 µM
same,TGI,[19],> 100 µM
same,TGI,[20],> 100 µM
same,TGI,[56],> 100 µM
same,TGI,[21],> 100 µM
same,TGI,[22],> 100 µM
same,TGI,[23],> 100 µM
same,TGI,[24],> 100 µM
same,TGI,[25],> 100 µM
same,TGI,[26],> 100 µM
same,TGI,[27],92.9 µM
same,TGI,[28],> 100 µM
same,TGI,[29],> 100 µM
same,TGI,[31],> 100 µM
same,TGI,[32],> 100 µM
same,TGI,[35],> 100 µM
same,TGI,[36],> 100 µM
same,TGI,[37],74 µM
same,TGI,[38],> 100 µM
same,TGI,[39],> 100 µM
same,TGI,[40],> 100 µM
same,TGI,[41],> 100 µM
same,TGI,[42],> 100 µM
same,TGI,[44],> 100 µM
same,TGI,[45],> 100 µM
same,TGI,[46],46.9 µM
same,TGI,[47],> 100 µM
same,TGI,[48],> 100 µM
same,TGI,[49],> 100 µM
same,TGI,[50],> 100 µM
same,TGI,[51],> 100 µM
same,TGI,[53],> 100 µM
same,TGI,[54],> 100 µM
